Literature values in PubChem BioAssay AID1259409 (Chemical Carcinogenesis Research Information System (CCRIS), 2018).

System: rodent chemically induced tumor inhibition, incidence and multiplicity
Test: CCRIS tumor inhibitor studies

O=c1oc2c(O)c(O)cc3c(=O)oc4c(O)c(O)cc1c4c23
tumour outcome (control, treated, inhibition, significance) (Carcinogen: BENZO[A]PYRENE, 50-32-8, Dose [Inhibitor]: 0, 2500 NMOL IN 200 µL ACETONE:METHANOL (45:55) ONCE APPLIED 5 MIN PRIOR TO CARCINOGEN DOSE (STUDY DURATION: 21 WK), Route [Inhibitor]: DERMAL, Species: MOUSE, Strain/Sex: CD-1/FEMALE, Target Tissue: Type of Lesion: SKIN: TUMOR, Dose [Carcinogen]: 50 NMOL IN ACETONE:DMSO (90:10) ONCE, Promoter: 12-O-TETRADECANOYLPHORBOL-13-ACETATE, 16561-29-8): 55%, 33%, 40%, not significant
tumour outcome (control, treated, inhibition, significance) (Carcinogen: BENZO[A]PYRENE, 50-32-8, Dose [Inhibitor]: 100 MG/KG ADMINISTERED 1 HR BEFORE AND 6, 24, AND 48 HR AFTER BENZO[A]PYRENE TREATMENT (STUDY DURATION: 6 MO), Route [Inhibitor]: INTRAPERITONEAL, Species: MOUSE, Strain/Sex: STRAIN-A/MALE, Target Tissue: Type of Lesion: LUNG: ADENOMA, Dose [Carcinogen]: 100 MG/KG ONCE, Promoter: NONE USED): 18/18 (100%), 4/6 (67%), 33%, not significant
tumour outcome (control, treated, inhibition, significance) (Carcinogen: BENZO[A]PYRENE, 50-32-8, Dose [Inhibitor]: 100 MG/KG ADMINISTERED 1 HR BEFORE AND 6, 24, AND 48 HR AFTER CARCINOGEN TREATMENT FOLLOWED BY 6 MO OBSERVATION PERIOD (, Route [Inhibitor]: INTRAPERITONEAL, Species: MOUSE, Strain/Sex: STRAIN-A/MALE, Target Tissue: Type of Lesion: LUNG: ADENOMA, Dose [Carcinogen]: 100 MG/KG ONCE, Promoter: NONE USED): 18/18 (100%), 4/6 (67%), 33%, not significant
tumour outcome (control, treated, inhibition, significance) (Carcinogen: BENZO[A]PYRENE, 50-32-8, Dose [Inhibitor]: 100 MG/KG STARTING 5 D BEFORE AND CONTINUING THROUGH 10 D AFTER CARCINOGEN TREATMENT (STUDY DURATION: 6 MO), Route [Inhibitor]: ORAL, Species: MOUSE, Strain/Sex: STRAIN-A/MALE, Target Tissue: Type of Lesion: LUNG: ADENOMA, Dose [Carcinogen]: 100 MG/KG ONCE, Promoter: NONE USED): 18/18 (100%), 19/19 (100%), 0%, not significant
tumour outcome (control, treated, inhibition, significance) (Carcinogen: BENZO[A]PYRENE, 50-32-8, Dose [Inhibitor]: 100 MG/KG/D IN DIET STARTING 5 D BEFORE AND CONTINUING TO 10 D AFTER CARCINOGEN TREATMENT FOLLOWED BY 6 MO OBSERVATION P, Route [Inhibitor]: ORAL, Species: MOUSE, Strain/Sex: STRAIN-A/MALE, Target Tissue: Type of Lesion: LUNG: ADENOMA, Dose [Carcinogen]: 100 MG/KG ONCE, Promoter: NONE USED): 18/18 (100%), 19/19 (100%), 0%, not significant
tumour outcome (control, treated, inhibition, significance) (Carcinogen: DIBENZO[A,H]PYRENE, 189-64-0, Dose [Inhibitor]: 0, 300 NMOL (TOTAL DOSE) APPLIED 10 MIN PRIOR TO CARCINOGEN DOSE INJECTED AS 1/7, 2/7, AND 4/7 OF THE TOTAL ON DAYS 1, 8, Route [Inhibitor]: INTRAPERITONEAL, Species: MOUSE, Strain/Sex: ICR/MALE,FEMALE, Target Tissue: Type of Lesion: LUNG: TUMOR, Dose [Carcinogen]: 50 NMOL (TOTAL DOSE) INJECTED IN DOSES OF 1/7, 2/7, AND 4/7 ON DAYS 1, 8, AND 15 OF LIFE, RESPECTIVELY, Promoter: NONE USED): 95%, 100%, -5%, not significant
tumour outcome (control, treated, inhibition, significance) (Carcinogen: DIETHYLNITROSAMINE, 55-18-5, Dose [Inhibitor]: 0, 900 MG/KG BW BY INTRAPERITONEAL INJECTION ON DAYS 13, 14 AND 15 OF AGE THEN 6 G/KG DIET FROM 21 TO 161 DAYS OF AGE (S, Route [Inhibitor]: INTRAPERITONEAL, ORAL, Species: MOUSE, Strain/Sex: C3H/MALE, Target Tissue: Type of Lesion: LIVER: ADENOMA, Dose [Carcinogen]: 4 MG/KG IN TRICAPRYLIN ONCE ON DAY 15 OF AGE, Promoter: NONE USED): 100%, 100%, 0%, not significant
tumour outcome (control, treated, inhibition, significance) (Carcinogen: DIETHYLNITROSAMINE, 55-18-5, N-METHYLNITROSOUREA, 684-93-5, 1,2-DIMETHYLHYDRAZINE, 540-73-8, N-BUTYL-N-(4-HYDROXYB, Carcinogen: DIETHYLNITROSAMINE, 55-18-5, N-METHYLNITROSOUREA, 684-93-5, 1,2-DIMETHYLHYDRAZINE, 540-73-8, N-BUTYL-N-(4-HYDROXYB, Dose [Inhibitor]: 0, 1% IN DIET FOR 4 WK BEGINNING 1 DAY PRIOR TO CARCINOGEN TREATMENT (STUDY DURATION: 36 WK), Route [Inhibitor]: ORAL, Species: RAT, Strain/Sex: F344/MALE, Target Tissue: Type of Lesion: KIDNEY: ADENOMA, Dose [Carcinogen]: 100 MG/KG DEN ONCE, 20 MG/KG MNU 4 TIMES, 40 MG/KG DMH 4 TIMES, 0.05% BBN IN DRINKING WATER FOR 2 WK, 0.1% DHPN IN D, Dose [Carcinogen]: 100 MG/KG DEN ONCE, 20 MG/KG MNU 4 TIMES, 40 MG/KG DMH 4 TIMES, 0.05% BBN IN DRINKING WATER FOR 2 WK, 0.1% DHPN IN D, Promoter: NONE USED): 4/14 (29%), 1/12 (8%), 72%, not significant
tumour outcome (control, treated, inhibition, significance) (Carcinogen: DIETHYLNITROSAMINE, 55-18-5, N-METHYLNITROSOUREA, 684-93-5, 1,2-DIMETHYLHYDRAZINE, 540-73-8, N-BUTYL-N-(4-HYDROXYB, Carcinogen: DIETHYLNITROSAMINE, 55-18-5, N-METHYLNITROSOUREA, 684-93-5, 1,2-DIMETHYLHYDRAZINE, 540-73-8, N-BUTYL-N-(4-HYDROXYB, Dose [Inhibitor]: 0, 1% IN DIET FOR 4 WK BEGINNING 1 DAY PRIOR TO CARCINOGEN TREATMENT (STUDY DURATION: 36 WK), Route [Inhibitor]: ORAL, Species: RAT, Strain/Sex: F344/MALE, Target Tissue: Type of Lesion: KIDNEY: NEPHROBLASTOMA, Dose [Carcinogen]: 100 MG/KG DEN ONCE, 20 MG/KG MNU 4 TIMES, 40 MG/KG DMH 4 TIMES, 0.05% BBN IN DRINKING WATER FOR 2 WK, 0.1% DHPN IN D, Dose [Carcinogen]: 100 MG/KG DEN ONCE, 20 MG/KG MNU 4 TIMES, 40 MG/KG DMH 4 TIMES, 0.05% BBN IN DRINKING WATER FOR 2 WK, 0.1% DHPN IN D, Promoter: NONE USED): 7/14 (50%), 5/12 (42%), 16%, not significant
tumour outcome (control, treated, inhibition, significance) (Carcinogen: DIETHYLNITROSAMINE, 55-18-5, N-METHYLNITROSOUREA, 684-93-5, 1,2-DIMETHYLHYDRAZINE, 540-73-8, N-BUTYL-N-(4-HYDROXYB, Carcinogen: DIETHYLNITROSAMINE, 55-18-5, N-METHYLNITROSOUREA, 684-93-5, 1,2-DIMETHYLHYDRAZINE, 540-73-8, N-BUTYL-N-(4-HYDROXYB, Dose [Inhibitor]: 0, 1% IN DIET FOR 4 WK BEGINNING 1 DAY PRIOR TO CARCINOGEN TREATMENT (STUDY DURATION: 36 WK), Route [Inhibitor]: ORAL, Species: RAT, Strain/Sex: F344/MALE, Target Tissue: Type of Lesion: LARGE INTESTINE: ADENOMA, Dose [Carcinogen]: 100 MG/KG DEN ONCE, 20 MG/KG MNU 4 TIMES, 40 MG/KG DMH 4 TIMES, 0.05% BBN IN DRINKING WATER FOR 2 WK, 0.1% DHPN IN D, Dose [Carcinogen]: 100 MG/KG DEN ONCE, 20 MG/KG MNU 4 TIMES, 40 MG/KG DMH 4 TIMES, 0.05% BBN IN DRINKING WATER FOR 2 WK, 0.1% DHPN IN D, Promoter: NONE USED): 7/14 (50%), 5/12 (42%), 16%, not significant
tumour outcome (control, treated, inhibition, significance) (Carcinogen: DIETHYLNITROSAMINE, 55-18-5, N-METHYLNITROSOUREA, 684-93-5, 1,2-DIMETHYLHYDRAZINE, 540-73-8, N-BUTYL-N-(4-HYDROXYB, Carcinogen: DIETHYLNITROSAMINE, 55-18-5, N-METHYLNITROSOUREA, 684-93-5, 1,2-DIMETHYLHYDRAZINE, 540-73-8, N-BUTYL-N-(4-HYDROXYB, Dose [Inhibitor]: 0, 1% IN DIET FOR 4 WK BEGINNING 1 DAY PRIOR TO CARCINOGEN TREATMENT (STUDY DURATION: 36 WK), Route [Inhibitor]: ORAL, Species: RAT, Strain/Sex: F344/MALE, Target Tissue: Type of Lesion: LARGE INTESTINE: CARCINOMA, Dose [Carcinogen]: 100 MG/KG DEN ONCE, 20 MG/KG MNU 4 TIMES, 40 MG/KG DMH 4 TIMES, 0.05% BBN IN DRINKING WATER FOR 2 WK, 0.1% DHPN IN D, Dose [Carcinogen]: 100 MG/KG DEN ONCE, 20 MG/KG MNU 4 TIMES, 40 MG/KG DMH 4 TIMES, 0.05% BBN IN DRINKING WATER FOR 2 WK, 0.1% DHPN IN D, Promoter: NONE USED): 3/14 (21%), 4/12 (33%), -57%, not significant
tumour outcome (control, treated, inhibition, significance) (Carcinogen: DIETHYLNITROSAMINE, 55-18-5, N-METHYLNITROSOUREA, 684-93-5, 1,2-DIMETHYLHYDRAZINE, 540-73-8, N-BUTYL-N-(4-HYDROXYB, Carcinogen: DIETHYLNITROSAMINE, 55-18-5, N-METHYLNITROSOUREA, 684-93-5, 1,2-DIMETHYLHYDRAZINE, 540-73-8, N-BUTYL-N-(4-HYDROXYB, Dose [Inhibitor]: 0, 1% IN DIET FOR 4 WK BEGINNING 1 DAY PRIOR TO CARCINOGEN TREATMENT (STUDY DURATION: 36 WK), Route [Inhibitor]: ORAL, Species: RAT, Strain/Sex: F344/MALE, Target Tissue: Type of Lesion: SMALL INTESTINE: ADENOMA, Dose [Carcinogen]: 100 MG/KG DEN ONCE, 20 MG/KG MNU 4 TIMES, 40 MG/KG DMH 4 TIMES, 0.05% BBN IN DRINKING WATER FOR 2 WK, 0.1% DHPN IN D, Dose [Carcinogen]: 100 MG/KG DEN ONCE, 20 MG/KG MNU 4 TIMES, 40 MG/KG DMH 4 TIMES, 0.05% BBN IN DRINKING WATER FOR 2 WK, 0.1% DHPN IN D, Promoter: NONE USED): 6/14 (43%), 1/12 (8%), 81%, not calculated
